Reference: PMC8000760, “Potential Effect of Pseudevernia furfuracea (L.) Zopf Extract and Metabolite Physodic Acid on Tumour Microenvironment Modulation in MCF-10A Cells” (Biomolecules, 2021)

How the values were obtained:
[1] = tested on: endothelial tube formation; conditions: cited from earlier work
[2] = tested on: N-cadherin, Snail, Twist, E-cadherin; design: method as in PMID 26371759; conditions: cited from earlier work
HUVEC = tested on: HUVEC; design: method as in PMID 22669534; conditions: cited from earlier work
angiogenesis in vivo = tested on: angiogenesis in vivo; design: method as in PMID 22669534; conditions: chorioallantoic membrane assay and corneal angiogenesis assay; cited from earlier work
EMT process = conditions: through decreasing the mRNA level of E-cadherin; cited from earlier work
MCF-10A cells = assay: Flow cytometry cell cycle phase distribution; assay type: cell-based, human; conditions: treatment alone (IC10 of PSE/Phy, or TGF-β 30 ng/mL)
Protocol: The MCF-10A and BJ-5ta cells were seeded and cultivated for 24 h in a complete medium. One day after seeding, 30 ng/mL of TGF-β was added and cultivated for 7 days (d). TGF-β was added to induce epithelial–mesenchymal transition in tested cell lines. Lichen extract P. furfuracea (L.) Zopf and its metabolite physodic acid were added at time 0 h and then incubated for 24, 48 and 72 h for various analyses, as described in Figure 1.
The MCF-10A cells (1 × 10^4/well) were seeded in Petri dishes and stimulated with […] TGF-β for 7 days. […] After detaching, using Trypsin/EDTA, cells were harvested and pelleted by centrifugation at 1200 rpm for 5 min. Pellet was re-suspended in PBS and divided for a particular analysis. Cells were stained prior to analyses with E-Cadherin Mouse mAb (Alexa Fluor 488 conjugate) or N-cadherin Rabbit mAb (Alexa Fluor 647 conjugate) (Cell Signalling) for 15 min at RT in the dark. For the cell cycle analyses, cells were re-suspended in staining solution (final concentration 0.1% Triton X-100, 0.5 mg/mL ribonuclease A and 0.025 mg/mL propidium iodide (PI)), and incubated in the dark at RT for 30 min. All samples were analysed using a FACS Calibur flow cytometer (Becton Dickinson, San Jose, CA, USA). The IgG isotype control checking was performed for every used antibody.

CCCCCC(=O)Cc1cc(O)cc(O)c1C(=O)Oc1cc(O)c(C(=O)O)c(CCCCC)c1 [olivetoric acid]
endothelial tube formation [1]: inhibiting

COC(=O)c1c(C)c2c(c(C)c1O)OC(=O)c1c(C)c(Cl)c(O)c(C=O)c1O2 [physciosporin]
changes in E-cadherin levels [2]: not observed
level of EMT-associated proteins N-cadherin, Snail and Twist [2]: decrease

COC(=O)/C(=C1/OC(=O)C(c2ccccc2)=C1O)c1ccccc1 [vulpinic acid]
anti-angiogenic activity by inhibiting endothelial tube formation [1]: strong anti-angiogenic activity

CC(=O)c1c(O)c(C)c(O)c2c1OC1=CC(=O)C(C(C)=O)C(=O)C12C (stereo not drawn) [(+)- usnic acid]
VEGF-induced HUVEC migration and tube formation (HUVEC): inhibits

CC(=O)c1c(O)c(C)c(O)c2c1OC1=CC(=O)C(C(C)=O)C(=O)C12C (centres unmarked) [usnic acid]
anti-angiogenic activity by inhibiting endothelial tube formation [1]: strong anti-angiogenic activity
angiogenesis in vivo (angiogenesis in vivo): inhibits
effect on the EMT process (EMT process): inhibitory effect

TGF-β
G1 cell cycle phase distribution (MCF-10A cells; 24 h): 74.55 ± 1.59
G2/M cell cycle phase distribution (MCF-10A cells; 24 h): 13.25 ± 2.49
S cell cycle phase distribution (MCF-10A cells; 24 h): 11.15 ± 0.69
Sub G0 cell cycle phase distribution (MCF-10A cells; 24 h): 1.07 ± 0.22
G1 cell cycle phase distribution (MCF-10A cells; 48 h): 83.05 ± 2.74
G2/M cell cycle phase distribution (MCF-10A cells; 48 h): 8.63 ± 1.69
S cell cycle phase distribution (MCF-10A cells; 48 h): 7.39 ± 0.88
Sub G0 cell cycle phase distribution (MCF-10A cells; 48 h): 0.94 ± 0.16
G1 cell cycle phase distribution (MCF-10A cells; 72 h): 81.35 ± 0.37
G2/M cell cycle phase distribution (MCF-10A cells; 72 h): 10.85 ± 0.45
S cell cycle phase distribution (MCF-10A cells; 72 h): 6.61 ± 0.74
Sub G0 cell cycle phase distribution (MCF-10A cells; 72 h): 1.22 ± 0.07
